Measured values: publication PMC10547238, “Discovery of Potent Tetrazole Free Fatty Acid Receptor 2 Antagonists” (Journal of Medicinal Chemistry, 2023)
Converted amounts (≈) assume the structure as drawn.

Tests used:
[1] = Chemical stability in PBS7.4; type: physicochemical
Experimental: Duplicates of 1 mL of a 50 μM solution were prepared by adding the 10 mM stock solution to a 1.5 mL Eppendorf tube and diluting it with PBS7.4. The Eppendorf tubes were incubated at 37 °C with gentle shaking (650 rpm) using an Eppendorf Thermomixer. The samples were briefly vortexed, and 50 μL aliquots were withdrawn at the time points 0, 12, 48, etc.; added to 250 μL vials; and analyzed immediately by HPLC. The chemical stability in PBS7.4 was determined at every time point in percentage relative to the 0 h time point.

[2] = Lipophilicity (logD7.4), octanol/PBS7.4 shake flask; type: physicochemical; conditions: 1-octanol/PBS7.4, pH 7.4; mean of two independent experiments
Experimental: The assay was performed in duplicates essentially as previously described.[58] A glass vial with a screw cap (8 mL) was charged with the test compound (40 μL, 10 mM in DMSO), PBS7.4 (0.01 M, 1980 μL), and 1-octanol (1980 μL). The vial was capped and sealed with a Parafilm and shaken at 700 rpm using an IKA KS 125 basic shaker for 24 h at 25 °C. The Parafilm was removed, and the sample was allowed to equilibrate for 1 h before analysis. One hundred microliters of the octanol phase was withdrawn and diluted 1:10 with MeOH (+0.1% TFA)/MilliQ water (4:1, v/v) and analyzed by HPLC. The interface was removed, and the PBS7.4 phase analyzed directly by HPLC. All analysis was performed in duplicates, and log D7.4 values were calculated from the peak areas (mAU·min) and adjusted for difference in injection volume and concentration-absorption effects from the solvents, using two calibration points per compound per solvent, and dilution of the octanol phase.

Microsomal stability = type: in vitro ADME, mouse
Experimental: The assay was performed in duplicates essentially as described previously,[58] using male CD1 mouse liver microsomes (Thermo Fischer Scientific, 20 mg/mL), NADPH-regenerating agent Solution A and Solution B (Promega), potassium phosphate buffer (100 mM, pH 7.4), and test compounds (1 mM, diluted from 10 mM DMSO stock in the buffer). The samples were analyzed in an Agilent 6130 Mass Spectrometer instrument using electron spray ionization (ESI) coupled to an Agilent 1200 HPLC system (ESI-LCMS) with a C18 reverse phase column (Zorbax Eclipse XBD-C18, 4.6 mm × 50 mm) using a linear gradient of the binary solvent system of 100% mobile phase A (water:MeCN:formic acid, 95:5:0.1 v/v%) to 100% mobile phase B (MeCN:formic acid, 100:0.1 v/v %) in 6 min, with a flow rate of 1 mL/min.
To a pre-warmed solution of potassium phosphate buffer (135.6 μL) in an Eppendorf tube at 37 °C were added Solution A (7.5 μL), Solution B (1.5 μL), microsomes (3.9 μL), and the test compound (1 mM, 1.5 μL, final concentration = 10 μM). The tube was briefly vortexed and incubated at 37 °C in a thermomixer. At 0, 15, 30, 45, and 60 min, 25 μL of each sample was transferred to an ice-cold solution containing an internal standard (5 μM in MeCN, 12.5 μL). The sample was briefly vortexed and centrifuged for 5 min at 10.000g. The supernatant (25 μL) was transferred to HPLC vial and analyzed by ESI-LCMS in single ion mode. The data was analyzed using GraphPad Prism (version 9).

[3] = Kinetic aqueous solubility; type: physicochemical; conditions: phosphate buffer; kinetic solubility in PBS at pH 7.4 and 25 °C
Experimental: Twenty microliters of a 10 mM compound stock solution in DMSO was added to an Eppendorf tube containing 980 μL of phosphate buffer (10 mM, pH = 7.4). The samples were incubated in an Eppendorf Thermomixer (25 °C, 800 rpm) for 24 h. Afterward, the samples were centrifuged for 5 min at 11,000 rpm and the supernatant was filtered (0.2 μm PTFE membrane) before analysis by HPLC. Each compound was analyzed in duplicate. The solubility was calculated from the peak area relative to the reference samples (200 μM in MeOH/MilliQ H2O, 60/40, v/v).

[4] = remaining, PBS7.4 at 37 °C, 10 days
[5] = % recovered after 60 min, mouse liver microsomes

SMILES	chemical stability [1, 4] [%]	logD at 25 h [2]	microsomal stability (Microsomal stability; [5]) [%]	solubility at 24 h [3] [µM]	chemical stability ([1]; supplementary CSV) [%]	in vitro clearance (Microsomal stability; mouse liver microsomes)	microsomal stability (Microsomal stability; supplementary CSV) [%]
O=C(O)C[C@H](Cc1ccc(C(F)(F)F)cc1)NC(=O)Cc1cccc(Cl)c1 [Compound 3, reference compound]	90	1.39 ± 0.01	91	166 (≈ 66.4 µg/mL)			
COc1cccc(CC(=O)N[C@@H](Cc2ccc(C(F)(F)F)cc2)Cc2nnn[nH]2)c1 [Compound 16l, (S)-N-(1-(1H-Tetrazol-5-yl)-3-(4-(trifluoromethyl)phenyl)propan-2-yl)-2-(3-methoxyphenyl)acetamide]	>95	0.84 ± 0.01	93	176 (≈ 73.8 µg/mL)	>95	low in vitro clearance	93
O=C(Cc1cncc(Br)c1)N[C@@H](Cc1ccc(C(F)(F)F)cc1)Cc1nnn[nH]1 [Compound 16w, (S)-3-(2-((1-(1H-Tetrazol-5-yl)-3-(4-(trifluoromethyl)phenyl)propan-2-yl)amino)-2-oxoethyl)-5-bromopyridin-1-ium 2,2,2-trifluoroacetate]	>95	0.71 ± 0.06	92	183 (≈ 85.9 µg/mL)	>95	low in vitro clearance	92
